Test results reported in paper PMC6010129, “Evaluation of sulphonamide derivatives acting as inhibitors of human carbonic anhydrase isoforms I, II and Mycobacterium tuberculosisβ-class enzyme Rv3273” (Journal of Enzyme Inhibition and Medicinal Chemistry, 2018).

Tests used:
[1] = biological target: T1, hCA I (Homo sapiens, UniProt P00915); assay: stopped-flow CO2 hydrase assay; assay type: biochemical
T1 construct: gene CA1; cytosolic isoform
Text: stopped-flow CO2 hydrase assay on hCA I

[2] = biological target: T2, mtCA 3 (Mycobacterium tuberculosis, UniProt P96878); assay: biochemical; set-up: stopped-flow CO2 hydration assay, phenol red absorbance at 557 nm, 15 min pre-incubation, Ki by Cheng-Prusoff
T2 construct: beta-class carbonic anhydrase
T2 sequence (P96878 entry or part of it): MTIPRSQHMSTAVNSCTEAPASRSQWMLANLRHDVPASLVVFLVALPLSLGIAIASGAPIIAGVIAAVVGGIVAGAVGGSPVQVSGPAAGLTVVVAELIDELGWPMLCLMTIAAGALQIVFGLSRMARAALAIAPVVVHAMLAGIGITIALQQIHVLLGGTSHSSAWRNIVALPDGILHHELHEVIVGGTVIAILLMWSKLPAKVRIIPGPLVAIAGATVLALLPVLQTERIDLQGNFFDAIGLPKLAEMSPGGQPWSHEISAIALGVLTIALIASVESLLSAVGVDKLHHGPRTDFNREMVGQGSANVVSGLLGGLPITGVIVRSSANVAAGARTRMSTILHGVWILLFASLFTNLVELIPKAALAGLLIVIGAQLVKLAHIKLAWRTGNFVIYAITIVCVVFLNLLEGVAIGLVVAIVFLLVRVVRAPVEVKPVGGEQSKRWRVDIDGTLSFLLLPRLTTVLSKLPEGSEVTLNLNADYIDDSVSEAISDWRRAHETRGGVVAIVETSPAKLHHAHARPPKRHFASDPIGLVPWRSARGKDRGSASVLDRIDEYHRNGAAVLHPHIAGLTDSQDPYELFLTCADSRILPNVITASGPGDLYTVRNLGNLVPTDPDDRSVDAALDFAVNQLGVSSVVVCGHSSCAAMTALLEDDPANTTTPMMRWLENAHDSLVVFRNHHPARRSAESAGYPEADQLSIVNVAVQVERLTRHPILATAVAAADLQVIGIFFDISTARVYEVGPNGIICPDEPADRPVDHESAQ
Procedure: An Sx.18Mv-R Applied Photophysics (Oxford, UK) stopped-flow instrument has been used to assay the catalytic activity of various CA isozymes for CO2 hydration reaction. Phenol red (at a concentration of 0.2 mM) was used as indicator, working at the absorbance maximum of 557 nm, with 10 mM Hepes (pH 7.5) or 10 mM Tris (pH 8.5) as buffers, and 0.1 M Na2SO4 (for maintaining constant ionic strength, which is not inhibitory against these enzymes), following the CA-catalysed CO2 hydration reaction for a period of 10 s at 25 °C. The CO2 concentrations ranged from 1.7 to 17 mM for the determination of the kinetic parameters and […]. For each inhibitor at least six traces of the initial 5–10% of the reaction have been used for determining the initial rate. The uncatalysed rates were determined in the same manner and subtracted from the total observed rates. Stock solutions of inhibitors (10 mM) were prepared in distilled-deionised […] to 1 nM using the assay buffer. Inhibitor and enzyme solutions were pre-incubated together for 15 min (standard assay at room temperature) prior to assay, in order to allow for the formation of the enzyme–inhibitor complex. The inhibition constant (KI), was obtained by considering the classical Michaelis–Menten equation and the Cheng-Prusoff algorithm by using non-linear least squares fitting as reported earlier. The compounds 5 and 6 reported here were investigated as inhibitors of three CAs involved in crucial physiologic processes and known to act as drug targets, i.e. the human (h) isoforms hCA I and II (belonging to the α-CA class) and the bacterial enzyme mtCA3 from Mycobacterium tuberculosis (a β-class CA) (Table 3). Acetazolamide (AAZ), a clinically used sulphonamide has been employed as standard inhibitor in the assay.

[3] = biological target: T3, hCA II (Homo sapiens, UniProt P00918); assay: stopped-flow CO2 hydrase assay; assay type: biochemical
T3 construct: gene CA2; cytosolic isoform
Text: stopped-flow CO2 hydrase assay on hCA II

T1 sequence (P00915 2-261): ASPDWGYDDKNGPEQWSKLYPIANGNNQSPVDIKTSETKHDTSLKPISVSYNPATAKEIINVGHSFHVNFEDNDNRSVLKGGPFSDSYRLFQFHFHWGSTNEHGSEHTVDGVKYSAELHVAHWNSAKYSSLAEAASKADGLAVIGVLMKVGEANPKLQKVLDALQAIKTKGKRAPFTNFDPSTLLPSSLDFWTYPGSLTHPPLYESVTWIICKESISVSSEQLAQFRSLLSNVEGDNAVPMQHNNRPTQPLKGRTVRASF

## NS(=O)(=O)c1ccc(NCC(=O)N2N=C(c3ccc(Cl)cc3)CC2c2cccs2)cc1 (stereo not drawn) [5i, 4-((2-(3-(4-Chlorophenyl)-5-(thiophen-2-yl)-4,5-dihydro-1H-pyrazol-1-yl)-2-oxoethyl)amino)benzenesulphonamide]
[1]
  Ki: 276 nM
[2]
  Ki: 233 nM
[3]
  Ki: 373 nM

## COc1cc(/C=N/NC(=O)CNc2ccc(S(N)(=O)=O)cc2)cc(OC)c1OC [6i, 4-((2-Oxo-2-(2-(3,4,5-trimethoxybenzylidene) hydrazinyl)ethyl)amino) benzenesulphonamide]
[1]
  Ki: 890 nM
[2]
  Ki: 216 nM
[3]
  Ki: 446 nM

## NS(=O)(=O)c1ccc(NCC(=O)N2N=C(c3ccc(Cl)cc3)CC2c2ccncc2)cc1 (stereo not drawn) [5e, 4-((2-(3-(4-Chlorophenyl)-5-(pyridin-4-yl)-4,5-dihydro-1H-pyrazol-1-yl)-2-oxoethyl)amino) benzenesulphonamide]
[1]
  Ki: 175 nM
[2]
  Ki: 138 nM
[3]
  Ki: 42.3 nM

## NS(=O)(=O)c1ccc(NCC(=O)N2N=C(c3ccc(Cl)cc3)CC2c2ccc(F)cc2)cc1 (stereo not drawn) [5b, 4-((2-(3-(4-Chlorophenyl)-5-(4-fluorophenyl)-4,5-dihydro-1H-pyrazol-1-yl)-2-oxoethyl)amino) benzenesulphonamide]
[1]
  Ki: 441 nM
[3]
  Ki: 500 nM

## NS(=O)(=O)c1ccc(NCC(=O)N2N=C(c3ccc(Cl)cc3)CC2c2ccccc2Cl)cc1 (stereo not drawn) [5f, 4-((2-(3-(4-Chlorophenyl)-5-(2-chlorophenyl)-4,5-dihydro-1H-pyrazol-1-yl)-2-oxoethyl)amino)benzenesulphonamide]
[1]
  Ki: 445 nM
[2]
  Ki: 215 nM
[3]
  Ki: 433 nM

## NS(=O)(=O)c1ccc(NCC(=O)N2N=C(c3ccc(Cl)cc3)CC2c2ccc(Br)cc2)cc1 (stereo not drawn) [5c, 4-((2-(3-(4-Chlorophenyl)-5-(4-bromophenyl)-4,5-dihydro-1H-pyrazol-1-yl)-2-oxoethyl)amino) benzenesulphonamide]
[1]
  Ki: 634 nM
[2]
  Ki: 732 nM
[3]
  Ki: 2850 nM

## NS(=O)(=O)c1ccc(NCC(=O)N2N=C(c3ccc(Cl)cc3)CC2c2c3ccccc3cc3ccccc23)cc1 (stereo not drawn) [5j, 4-((2-(5-(Anthracen-9-yl)-3-(4-chlorophenyl)-4,5-dihydro-1H-pyrazol-1-yl)-2-oxoethyl)amino)benzenesulphonamide]
[1]
  Ki: 91.8 nM
[2]
  Ki: 157 nM
[3]
  Ki: 2020 nM

## COc1cccc(C=NNC(=O)CNc2ccc(S(N)(=O)=O)cc2)c1OC [6j, 4-((2-(2-(2,3-Dimethoxybenzylidene)hydrazinyl)-2-oxoethyl)amino)benzenesulphonamide]
[1]
  Ki: 785 nM
[2]
  Ki: 232 nM
[3]
  Ki: 240 nM

## CC1=NN(C(=O)CNc2ccc(S(N)(=O)=O)cc2)C(c2ccccc2Cl)C1 (stereo not drawn) [5q, 4-((2-(5-(2-Chlorophenyl)-3-methyl-4,5-dihydro-1H-pyrazol-1-yl)-2-oxoethyl)amino)benzenesulphonamide]
[1]
  Ki: 742 nM
[2]
  Ki: 623 nM
[3]
  Ki: 648 nM

## CC1=NN(C(=O)CNc2ccc(S(N)(=O)=O)cc2)C(c2ccc(N(C)C)cc2)C1 (stereo not drawn) [5t]
[1]
  Ki: 842 nM
[2]
  Ki: 1740 nM
[3]
  Ki: 5150 nM

## NS(=O)(=O)c1ccc(NCC(=O)N/N=C/c2ccccc2)cc1 [6a, 4-((2-(2-Benzylidenehydrazinyl)-2-oxoetehyl)amino) benzenesulphonamide]
[1]
  Ki: 220 nM
[2]
  Ki: > 10000 nM
[3]
  Ki: 549 nM

## NS(=O)(=O)c1ccc(NCC(=O)N/N=C/c2ccc(O)cc2)cc1 [6g, 4-((2-(2-(4-Hydroxybenzylidene)hydrazinyl)-2-oxoethyl)amino) benzenesulphonamide]
[1]
  Ki: 327 nM
[3]
  Ki: 255 nM

## CC1=NN(C(=O)CNc2ccc(S(N)(=O)=O)cc2)C(c2ccc(O)cc2)C1 (stereo not drawn) [5s, 4-((2(5-(4-Hydroxyphenyl)-3-methyl-4,5-dihydro-1H-pyrazol-1-yl)-2-oxoethyl)amino)benzenesulphonamide]
[1]
  Ki: 738 nM
[2]
  Ki: 265 nM
[3]
  Ki: 73.6 nM

## COc1ccc(/C=N/NC(=O)CNc2ccc(S(N)(=O)=O)cc2)cc1OC [6e, 4-((2-(2-(3,4-Dimethoxybenzylidene)hydrazinyl)-2-oxoethyl)amino) benzenesulphonamide]
[1]
  Ki: 1800 nM
[3]
  Ki: 758 nM

## Cc1ccc(C=NNC(=O)CNc2ccc(S(N)(=O)=O)cc2)cc1 [6b, 4-((2-(2-(4-Methylbenzylidene) hydrazinyl)-2-oxoethyl)amino)benzene sulphonamide]
[1]
  Ki: 266 nM
[2]
  Ki: > 10000 nM
[3]
  Ki: 914 nM

## CC1=NN(C(=O)CNc2ccc(S(N)(=O)=O)cc2)C(c2ccc(C)cc2)C1 (stereo not drawn) [5o, 4-((2-(3-Methyl-5-(p-tolyl)-4,5-dihydro-1H-pyrazol-1-yl)-2-oxoethyl)amino)benzene sulphonamide]
[1]
  Ki: 898 nM
[2]
  Ki: 275 nM
[3]
  Ki: 3460 nM

## COc1ccc(C2CC(c3ccc(Cl)cc3)=NN2C(=O)CNc2ccc(S(N)(=O)=O)cc2)cc1OC (stereo not drawn) [5h, 4-((2-(3-(4-Chlorophenyl)-5-(3,4-dimethoxyphenyl)-4,5-dihydro-1H-pyrazol-1-yl)-2-oxoethyl)amino)benzenesulphonamide]
[1]
  Ki: 280 nM
[2]
  Ki: 186 nM
[3]
  Ki: 424 nM

## Cc1ccc(C2CC(c3ccc(Cl)cc3)=NN2C(=O)CNc2ccc(S(N)(=O)=O)cc2)cc1 (stereo not drawn) [5d, 4-((2-(3-(4-Chlorophenyl)-5-(4-methylphenyl)-4,5-dihydro-1H-pyrazol-1-yl)-2-oxoethyl)amino)benzenesulphonamide]
[1]
  Ki: 93.4 nM
[2]
  Ki: 175 nM
[3]
  Ki: 426 nM

## NS(=O)(=O)c1ccc(NCC(=O)N2N=C(c3ccc(Cl)cc3)CC2c2ccccc2)cc1 (stereo not drawn) [5a, 4-((2-(3-(4-Chlorophenyl)-5-phenyl-4,5-dihydro-1H-pyrazol-1-yl)-2-oxoethyl)amino) benzenesulphonamide]
[1]
  Ki: 306 nM
[2]
  Ki: 1800 nM
[3]
  Ki: 282 nM

## NS(=O)(=O)c1ccc(NCC(=O)N2N=C(c3ccc(Cl)cc3)CC2c2ccccc2O)cc1 (stereo not drawn) [5g, 4-((2-(3-(4-Chlorophenyl)-5-(2-hydroxyphenyl)-4,5-dihydro-1H-pyrazol-1-yl)-2-oxoethyl)amino)benzenesulphonamide]
[1]
  Ki: 174 nM
[2]
  Ki: 147 nM
[3]
  Ki: 578 nM

## NS(=O)(=O)c1ccc(NCC(=O)N2N=C(c3ccc(Cl)cc3)CC2c2c[nH]c3ccccc23)cc1 (stereo not drawn) [5k, 4-((2-(3-(4-Chlorophenyl)-5-(1H-indol-3-yl)-4,5-dihydro-1H-pyrazol-1-yl)-2-oxoethyl)amino)benzenesulphonamide]
[1]
  Ki: 440 nM
[2]
  Ki: 127 nM
[3]
  Ki: 392 nM

## CC1=NN(C(=O)CNc2ccc(S(N)(=O)=O)cc2)C(c2ccc(Cl)cc2)C1 (stereo not drawn) [5n, 4-((2-(5-(4-Chlorophenyl)-3-methyl-4,5-dihydro-1H-pyrazol-1-yl)-2-oxoethyl)amino)benzenesulphonamide]
[1]
  Ki: 835 nM
[2]
  Ki: 1290 nM
[3]
  Ki: 944 nM

## COc1cc(/C=N/NC(=O)CNc2ccc(S(N)(=O)=O)cc2)cc(OC)c1O [6h, 4-((2-(2-(4-Hydroxy-3,5-dimethoxybenzylidene)hydrazinyl)-2-oxoethyl)amino) benzenesulphonamide]
[1]
  Ki: 292 nM
[2]
  Ki: 2000 nM
[3]
  Ki: 483 nM

## CC1=NN(C(=O)CNc2ccc(S(N)(=O)=O)cc2)C(c2ccccc2)C1 (stereo not drawn) [5l, 4-((2-(3-Methyl-5-phenyl-4,5-dihydro-1H-pyrazol-1-yl)-2-oxoethyl)amino) benzene sulphonamide]
[1]
  Ki: 760 nM
[2]
  Ki: 1580 nM
[3]
  Ki: 810 nM

## CC1=NN(C(=O)CNc2ccc(S(N)(=O)=O)cc2)C(c2cccs2)C1 (stereo not drawn) [5u, 4-((2-(3-Methyl-5-(thiophen-2-yl)-4,5-dihydro-1H-pyrazol-1-yl)-2-oxoethyl)amino)benzenesulphonamide]
[1]
  Ki: 798 nM
[2]
  Ki: 1450 nM
[3]
  Ki: 126 nM

## COc1ccc(/C=N/NC(=O)CNc2ccc(S(N)(=O)=O)cc2)cc1 [6f, 4-((2-(2-(4-Methoxybenzylidene) hydrazinyl)-2-oxoethyl)amino) benzenesulphonamide]
[1]
  Ki: 648 nM
[2]
  Ki: 2130 nM
[3]
  Ki: 703 nM

## CC1=NN(C(=O)CNc2ccc(S(N)(=O)=O)cc2)C(c2ccc(F)cc2)C1 (stereo not drawn) [5p, 4-((2-(5-(4-Fluorophenyl)-3-methyl-4,5-dihydro-1H-pyrazol-1-yl)-2-oxoethyl)amino)benzenesulphonamide]
[1]
  Ki: 665 nM
[2]
  Ki: 250 nM
[3]
  Ki: 903 nM

## NS(=O)(=O)c1ccc(NCC(=O)N/N=C/c2ccccc2O)cc1 [6c, 4-((2-(2-(2-Hydroxybenzylidene)hydrazinyl)-2-oxoethyl)amino) benzenesulphonamide]
[1]
  Ki: 54.6 nM
[2]
  Ki: 2150 nM
[3]
  Ki: 32.1 nM

## COc1ccc(C2CC(C)=NN2C(=O)CNc2ccc(S(N)(=O)=O)cc2)cc1 (stereo not drawn) [5m, 4-((2-(5-(4-Methoxyphenyl)-3-methyl-4,5-dihydro-1H-pyrazol-1-yl)-2-oxoethyl)amino)benzenesulphonamide]
[1]
  Ki: 2370 nM
[2]
  Ki: > 10000 nM
[3]
  Ki: 5550 nM
